Patent US20100092526A1, “NANOEMULSION THERAPEUTIC COMPOSITIONS AND METHODS OF USING THE SAME” (NanoBio Corporation, priority 2008, published 2010)
≈ marks a conversion by molar mass, not a printed value. Read-outs that look alike come from different tables or passages of the source.

Assays:
[1] = tested on: Stenotrophomonas maltophilia; experiment: MIC/MBC of nanoemulsions against gram-negative isolates (CLSI, alamar blue); assay type: cell-based; conditions: Stenotrophomonas maltophilia (n = 5)
Proteus mirabilis = experiment: as above; assay type: cell-based; conditions: Proteus mirabilis (n = 5)
[2] = tested on: Stenotrophomonas maltophilia; experiment: MIC/MBC against CF isolates (CLSI, alamar blue); conditions: Stenotrophomonas maltophilia
Klebsiella pneumoniae = experiment: MIC/MBC of nanoemulsions against gram-negative isolates (CLSI, alamar blue); assay type: cell-based; conditions: Klebsiella pneumoniae (n = 5)
Escherichia coli = experiment: as above; assay type: cell-based; conditions: Escherichia coli (n = 5)
Burkholderia cepacia = experiment: as above; assay type: cell-based; conditions: Burkholderia cepacia (n = 5)
Burkholderia cenocepacia = experiment: MIC/MBC against CF isolates (CLSI, alamar blue); conditions: Burkholderia cenocepacia
Pseudomonas aeruginosa [3] = experiment: MIC/MBC of nanoemulsions against gram-negative isolates (CLSI, alamar blue); assay type: cell-based; conditions: Pseudomonas aeruginosa (n = 5)
Pseudomonas aeruginosa [4] = experiment: MIC/MBC against CF isolates (CLSI, alamar blue); conditions: Pseudomonas aeruginosa
Acinetobacter baumannii [5] = experiment: MIC/MBC of nanoemulsions against gram-negative isolates (CLSI, alamar blue); assay type: cell-based; conditions: Acinetobacter baumannii (n = 5)
Acinetobacter baumannii [6] = experiment: MIC/MBC against clinical isolates (CLSI, alamar blue); conditions: Acinetobacter baumannii
[7] = nanoemulsions in the presence of 5 mM EDTA
[8] = nanoemulsions in the presence of 5 mM EDTA, in µg/mL
[9] = CF Stenotrophomonas isolate NB41
[10] = CF Stenotrophomonas isolate NB42
[11] = CF Stenotrophomonas isolate NB43
[12] = CF Stenotrophomonas isolate NB44
[13] = CF Stenotrophomonas isolate NB45
[14] = CF Stenotrophomonas isolate Steno 1
[15] = CF Stenotrophomonas isolate Steno 2
[16] = CF Stenotrophomonas isolate Steno 3
[17] = CF Stenotrophomonas isolate Steno 4
[18] = CF Stenotrophomonas isolate Steno 6
[19] = CF Stenotrophomonas isolate Steno 8

## C[C@H]1COc2c(N3CCN(C)CC3)c(F)cc3c(=O)c(C(=O)O)cn1c23 [Levofloxacin]
[1]
  % resistant: 20.0%
  % susceptible: 60.0%
[1]; [7]
  MIC50: 0.5 µg/mL
[1]; [8]
  MIC Range: 0.5-8
Proteus mirabilis
  % resistant: 0.0%
  % susceptible: 100.0%
Proteus mirabilis; [7]
  MIC50: 0.12 µg/mL
Proteus mirabilis; [8]
  MIC Range: 0.06-2
[2]
  MBC: 16 µg/mL (≈ 44.3 µM)
  MIC50: 2 µg/mL (≈ 5.53 µM)
  MIC90: 8 µg/mL (≈ 22.1 µM)
[2]; [9]
  MBC: 4 µg/mL (≈ 11.1 µM)
  MIC: 2 µg/mL (≈ 5.53 µM)
[2]; [10]
  MBC: 16 µg/mL (≈ 44.3 µM)
  MIC: 8 µg/mL (≈ 22.1 µM)
[2]; [11]
  MBC: 4 µg/mL (≈ 11.1 µM)
  MIC: 2 µg/mL (≈ 5.53 µM)
[2]; [12]
  MBC: 16 µg/mL (≈ 44.3 µM)
  MIC: 8 µg/mL (≈ 22.1 µM)
[2]; [13]
  MBC: 2 µg/mL (≈ 5.53 µM)
  MIC: 1 µg/mL (≈ 2.77 µM)
[2]; [14]
  MBC: 4 µg/mL (≈ 11.1 µM)
  MIC: 1 µg/mL (≈ 2.77 µM)
[2]; [15]
  MBC: 8 µg/mL (≈ 22.1 µM)
  MIC: 4 µg/mL (≈ 11.1 µM)
[2]; [16]
  MBC: 4 µg/mL (≈ 11.1 µM)
  MIC: 1 µg/mL (≈ 2.77 µM)
[2]; [17]
  MBC: 2 µg/mL (≈ 5.53 µM)
  MIC: 0.5 µg/mL (≈ 1.38 µM)
[2]; [18]
  MBC: 4 µg/mL (≈ 11.1 µM)
  MIC: 2 µg/mL (≈ 5.53 µM)
[2]; [19]
  MBC: 2 µg/mL (≈ 5.53 µM)
  MIC: 2 µg/mL (≈ 5.53 µM)
[2]; read-out: MBC 50, 11 CF Stenotrophomonas isolates
  MBC: 4 µg/mL (≈ 11.1 µM)
Klebsiella pneumoniae
  % resistant: 20.0%
  % susceptible: 80.0%
Klebsiella pneumoniae; [7]
  MIC50: 0.06 µg/mL
Klebsiella pneumoniae; [8]
  MIC Range: 0.06-8
Escherichia coli
  % resistant: 40.0%
  % susceptible: 60.0%
Escherichia coli; [7]
  MIC50: 0.03 µg/mL
Burkholderia cepacia
  % resistant: 0.0%
  % susceptible: 100.0%
Burkholderia cepacia; [7]
  MIC50: 2 µg/mL
Burkholderia cepacia; [8]
  MIC Range: 1-2
Burkholderia cenocepacia; CF Burkholderia isolate NB21
  MBC: 2 µg/mL (≈ 5.53 µM)
  MIC: 2 µg/mL (≈ 5.53 µM)
Burkholderia cenocepacia; CF Burkholderia isolate NB22
  MBC: 4 µg/mL (≈ 11.1 µM)
  MIC: 1 µg/mL (≈ 2.77 µM)
Burkholderia cenocepacia; CF Burkholderia isolate NB23
  MBC: > 16 µg/mL
  MIC: 8 µg/mL (≈ 22.1 µM)
Burkholderia cenocepacia; CF Burkholderia isolate NB24
  MBC: 16 µg/mL (≈ 44.3 µM)
  MIC: 8 µg/mL (≈ 22.1 µM)
Burkholderia cenocepacia; CF Burkholderia isolate NB25
  MBC: 8 µg/mL (≈ 22.1 µM)
  MIC: 4 µg/mL (≈ 11.1 µM)
Burkholderia cenocepacia; CF Burkholderia isolate NB26
  MBC: 8 µg/mL (≈ 22.1 µM)
  MIC: 8 µg/mL (≈ 22.1 µM)
Burkholderia cenocepacia; CF Burkholderia isolate NB27
  MBC: 8 µg/mL (≈ 22.1 µM)
  MIC: 4 µg/mL (≈ 11.1 µM)
Burkholderia cenocepacia; CF Burkholderia isolate NB28b
  MBC: 2 µg/mL (≈ 5.53 µM)
  MIC: 1 µg/mL (≈ 2.77 µM)
Burkholderia cenocepacia; CF Burkholderia isolate NB29
  MBC: 4 µg/mL (≈ 11.1 µM)
  MIC: 1 µg/mL (≈ 2.77 µM)
Burkholderia cenocepacia; CF Burkholderia isolate NB30
  MBC: 1 µg/mL (≈ 2.77 µM)
  MIC: 1 µg/mL (≈ 2.77 µM)
Pseudomonas aeruginosa [3]
  % resistant: 0.0%
  % susceptible: 80.0%
Pseudomonas aeruginosa [3]; [7]
  MIC50: 1 µg/mL
Pseudomonas aeruginosa [3]; [8]
  MIC Range: 0.25-4
Pseudomonas aeruginosa [4]
  MIC50: 0.5 µg/mL (≈ 1.38 µM)
  MIC90: 8 µg/mL (≈ 22.1 µM)
Pseudomonas aeruginosa [4]; CF Pseudomonas isolate NB1
  MBC: 1 µg/mL (≈ 2.77 µM)
  MIC: 0.5 µg/mL (≈ 1.38 µM)
Pseudomonas aeruginosa [4]; CF Pseudomonas isolate NB2
  MBC: 0.5 µg/mL (≈ 1.38 µM)
  MIC: 0.5 µg/mL (≈ 1.38 µM)
Pseudomonas aeruginosa [4]; CF Pseudomonas isolate NB3
  MBC: 0.5 µg/mL (≈ 1.38 µM)
  MIC: 0.25 µg/mL (≈ 0.692 µM)
Pseudomonas aeruginosa [4]; CF Pseudomonas isolate NB4
  MBC: 0.5 µg/mL (≈ 1.38 µM)
  MIC: 0.25 µg/mL (≈ 0.692 µM)
Pseudomonas aeruginosa [4]; CF Pseudomonas isolate NB5
  MBC: 1 µg/mL (≈ 2.77 µM)
  MIC: 0.5 µg/mL (≈ 1.38 µM)
Pseudomonas aeruginosa [4]; CF Pseudomonas isolate NB6
  MBC: 1 µg/mL (≈ 2.77 µM)
  MIC: 0.5 µg/mL (≈ 1.38 µM)
Pseudomonas aeruginosa [4]; CF Pseudomonas isolate NB7
  MBC: 1 µg/mL (≈ 2.77 µM)
  MIC: 0.5 µg/mL (≈ 1.38 µM)
Pseudomonas aeruginosa [4]; CF Pseudomonas isolate NB8
  MBC: 0.5 µg/mL (≈ 1.38 µM)
  MIC: 0.5 µg/mL (≈ 1.38 µM)
Pseudomonas aeruginosa [4]; CF Pseudomonas isolate NB9
  MBC: 0.5 µg/mL (≈ 1.38 µM)
  MIC: 0.5 µg/mL (≈ 1.38 µM)
Pseudomonas aeruginosa [4]; CF Pseudomonas isolate NB10
  MBC: 0.5 µg/mL (≈ 1.38 µM)
  MIC: 0.5 µg/mL (≈ 1.38 µM)
Pseudomonas aeruginosa [4]; CF Pseudomonas isolate NB11
  MBC: 16 µg/mL (≈ 44.3 µM)
  MIC: 8 µg/mL (≈ 22.1 µM)
Pseudomonas aeruginosa [4]; CF Pseudomonas isolate NB12
  MBC: 1 µg/mL (≈ 2.77 µM)
  MIC: 0.25 µg/mL (≈ 0.692 µM)
Pseudomonas aeruginosa [4]; CF Pseudomonas isolate NB13
  MBC: 2 µg/mL (≈ 5.53 µM)
  MIC: 0.5 µg/mL (≈ 1.38 µM)
Pseudomonas aeruginosa [4]; CF Pseudomonas isolate NB14
  MBC: > 16 µg/mL
  MIC: 16 µg/mL (≈ 44.3 µM)
Pseudomonas aeruginosa [4]; CF Pseudomonas isolate NB15
  MBC: 4 µg/mL (≈ 11.1 µM)
  MIC: 2 µg/mL (≈ 5.53 µM)
Pseudomonas aeruginosa [4]; CF Pseudomonas isolate NB16
  MBC: 8 µg/mL (≈ 22.1 µM)
  MIC: 2 µg/mL (≈ 5.53 µM)
Pseudomonas aeruginosa [4]; CF Pseudomonas isolate NB17
  MBC: 16 µg/mL (≈ 44.3 µM)
  MIC: 16 µg/mL (≈ 44.3 µM)
Pseudomonas aeruginosa [4]; CF Pseudomonas isolate NB18
  MBC: 8 µg/mL (≈ 22.1 µM)
  MIC: 4 µg/mL (≈ 11.1 µM)
Pseudomonas aeruginosa [4]; CF Pseudomonas isolate NB19
  MBC: 4 µg/mL (≈ 11.1 µM)
  MIC: 2 µg/mL (≈ 5.53 µM)
Pseudomonas aeruginosa [4]; CF Pseudomonas isolate NB20
  MBC: 1 µg/mL (≈ 2.77 µM)
  MIC: 0.5 µg/mL (≈ 1.38 µM)
Pseudomonas aeruginosa [4]; read-out: MBC 50, 20 CF Pseudomonas isolates
  MBC: 1 µg/mL (≈ 2.77 µM)
Pseudomonas aeruginosa [4]; read-out: MBC 50, second MBC 50 line of the summary, Stenotrophomonas, values equal those of the CF Pseudomonas isolates
  MBC: 1 µg/mL (≈ 2.77 µM)
Pseudomonas aeruginosa [4]; read-out: MBC 90, 20 CF Pseudomonas isolates
  MBC: 16 µg/mL (≈ 44.3 µM)
Pseudomonas aeruginosa [4]; read-out: MBC 90, second MBC 90 line of the summary, Stenotrophomonas, values equal those of the CF Pseudomonas isolates
  MBC: 16 µg/mL (≈ 44.3 µM)
Acinetobacter baumannii [5]
  % resistant: 20.0%
  % susceptible: 80.0%
Acinetobacter baumannii [5]; [7]
  MIC50: 0.25 µg/mL
Acinetobacter baumannii [6]
  MIC50: 16 µg/mL (≈ 44.3 µM)
  MIC90: > 16 µg/mL
Acinetobacter baumannii [6]; Acinetobacter isolate NB31
  MBC: 16 µg/mL (≈ 44.3 µM)
  MIC: 16 µg/mL (≈ 44.3 µM)
Acinetobacter baumannii [6]; Acinetobacter isolate NB32
  MBC: 8 µg/mL (≈ 22.1 µM)
  MIC: 8 µg/mL (≈ 22.1 µM)
Acinetobacter baumannii [6]; Acinetobacter isolate NB33
  MBC: 8 µg/mL (≈ 22.1 µM)
  MIC: 8 µg/mL (≈ 22.1 µM)
Acinetobacter baumannii [6]; Acinetobacter isolate NB34
  MBC: 16 µg/mL (≈ 44.3 µM)
  MIC: 16 µg/mL (≈ 44.3 µM)
Acinetobacter baumannii [6]; Acinetobacter isolate NB35
  MBC: > 16 µg/mL
  MIC: > 16 µg/mL
Acinetobacter baumannii [6]; Acinetobacter isolate NB36
  MBC: 1 µg/mL (≈ 2.77 µM)
  MIC: 1 µg/mL (≈ 2.77 µM)
Acinetobacter baumannii [6]; Acinetobacter isolate NB37
  MBC: 16 µg/mL (≈ 44.3 µM)
  MIC: 16 µg/mL (≈ 44.3 µM)
Acinetobacter baumannii [6]; Acinetobacter isolate NB38
  MBC: > 16 µg/mL
  MIC: 8 µg/mL (≈ 22.1 µM)
Acinetobacter baumannii [6]; Acinetobacter isolate NB39
  MBC: 16 µg/mL (≈ 44.3 µM)
  MIC: 16 µg/mL (≈ 44.3 µM)
Acinetobacter baumannii [6]; Acinetobacter isolate NB40
  MBC: > 16 µg/mL
  MIC: > 16 µg/mL
Acinetobacter baumannii [6]; read-out: MBC 50, 10 Acinetobacter isolates
  MBC: 16 µg/mL (≈ 44.3 µM)
